In patent publication US20140017336A1, “CO-ADMINISTRATION OF ARSENIC COMPOUNDS AND ANTI-HERPES VIRUS ANTI-VIRALS” (priority 2011, published 2014):
Entries after “also recorded” stand apart in the source; their conditions may differ.

Experiments:
[1] = test system: uninfected parental A549 cells; conditions: 4 days, 10 nM ATO, 40 μM GCV
[2] = test system: EBV immediate early protein Zta; experiment: Zta immunofluorescence in CNE1<EBV-BX1> cells; type: cell-based, Epstein-Barr virus; conditions: 1 nM ATO with or without 40 μM GCV, 3 days
Description: (§1) A549 cells were plated on 8-chambered Lab-Tek slides at 3×10^4 cells per well; chemical treatment began 24 hours after plating. At specified time points, cells were rinsed twice with PBS and fixed in 4% paraformaldehyde (freshly diluted from 16%, Electron Microscopy Science, Hatfield, Pa.) for 10 min at room temperature. The cells were then rinsed twice with PBS and permeabilized with 0.5% Triton™ X100 (Sigma) in PBS for 15 min at room temperature. Primary antibodies were applied at specified concentrations overnight in a humidified chamber at 4° C. Following 3 rinses in PBS, secondary antibodies were diluted 1:500 and applied for 1 hour at room temperature. The chambers were removed and Vectashield® with DAPI (Vector Laboratories, Burlingame, Calif. #H1200) was applied with cover slip mount. […]
To more specifically investigate the effects of disruption of PML NB on ZTA expression, siRNA directed against the PML transcript or a control siRNA were transfected into CNE1<BX1> cells. At day 4 post transfection, PML and Zta expression were analyzed using immunofluorescence. […] EBV infected and uninfected parental CNE1 cells were transfected with siRNA against the PML transcript or control siRNA cultured in the presence or absence of 40 μM GCV for 7 days and cells were counted in order to investigate whether disruption of PML NBs using siRNA induced GCV susceptibility. […]

[3] = test system: A549<EBVBX1>3A cells; experiment: Annexin V/propidium iodide viability, EBV infected A549 cells; conditions: 4 days
[4] = test system: EBV immediate early protein Zta; experiment: Zta immunofluorescence in EBV infected A549 cells; type: cell-based, Epstein-Barr virus
Description: as §1
To investigate the ability of ATO to disrupt PML NB in EBV infected A549 cells, cells were treated with varying doses of ATO for 24 hours and PML NBs were imaged. […] To assess whether EBV positivity affected PML protein levels, cell fractions from two separate EBV infections (A549<EBV>2C and A549<EBV>3A) and uninfected parental A549 cells were analyzed by western blot. […] To quantify the increase in Zta expression, mRNA isolated from A549<EBVBX1>3A cells treated with varying doses of ATO for 72 hours was analyzed by qRT-PCR. […]

[5] = target: T1, PML NB (Homo sapiens, UniProt P29590); type: cell-based
T1 construct: CNE1 cells were infected with the BX-1 strain of EBV and PML-NBs were imaged by fluorescent microscopy; endogenous in cells; host or cells: CNE1<EBV-BX1> (EBV-infected CNE1) and uninfected parental CNE1
T1 sequence (P29590 1-882): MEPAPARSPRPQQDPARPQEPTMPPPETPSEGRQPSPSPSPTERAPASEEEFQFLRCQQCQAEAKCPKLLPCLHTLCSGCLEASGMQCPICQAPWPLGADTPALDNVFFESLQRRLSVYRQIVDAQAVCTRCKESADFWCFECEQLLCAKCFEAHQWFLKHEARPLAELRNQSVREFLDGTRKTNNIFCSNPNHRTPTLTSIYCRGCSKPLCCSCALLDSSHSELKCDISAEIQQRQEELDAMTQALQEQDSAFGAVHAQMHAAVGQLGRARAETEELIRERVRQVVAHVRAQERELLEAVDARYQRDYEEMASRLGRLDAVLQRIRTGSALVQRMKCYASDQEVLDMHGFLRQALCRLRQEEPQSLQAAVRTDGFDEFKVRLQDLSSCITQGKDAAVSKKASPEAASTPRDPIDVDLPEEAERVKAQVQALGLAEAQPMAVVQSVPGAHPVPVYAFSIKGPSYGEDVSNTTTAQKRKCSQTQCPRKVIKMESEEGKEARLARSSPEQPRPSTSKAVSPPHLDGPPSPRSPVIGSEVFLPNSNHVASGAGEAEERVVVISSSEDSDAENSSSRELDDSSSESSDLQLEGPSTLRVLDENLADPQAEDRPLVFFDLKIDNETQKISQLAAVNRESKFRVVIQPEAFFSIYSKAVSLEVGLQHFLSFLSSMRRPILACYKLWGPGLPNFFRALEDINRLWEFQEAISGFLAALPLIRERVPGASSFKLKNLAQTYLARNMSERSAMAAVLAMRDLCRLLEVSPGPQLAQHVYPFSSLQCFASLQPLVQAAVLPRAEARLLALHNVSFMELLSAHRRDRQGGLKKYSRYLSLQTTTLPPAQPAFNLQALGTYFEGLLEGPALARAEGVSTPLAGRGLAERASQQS

In the case of arsenic trioxide [ATO], the “viability of uninfected parental cells” value [1] is reported as “did not affect the viability; also recorded: no effect on the viability”, the “number of Zta positive cells” value [2] is reported as “increased the number of cells that were Zta positive” and the “percentage of annexin V positive cells” value ([3]; control 21%) is reported as 58%. For the same substance, the “percentage of viable cells” value ([3]; EBV positive cells, control 67%) was 35%, the “cells staining positively for Zta” value ([4]; day 8, 10 nM ATO plus or minus GCV) was 100% and the “number of Zta positive cells, dose response” value ([4]; varying doses of ATO, 72 hours (3 days), two separate EBV infections of A549 cells) was “increase in the number of Zta positive cells in an ATO dose responsive manner; also recorded: increases the number of Zta positive cells in a dose dependent manner”. For the same substance, the “PML NB immunofluorescence signal” value ([5]; 1.0 nM ATO) was “below that of baseline untreated uninfected cells”, the “ATO concentration sufficient to disrupt PML NBs” value ([5]; EBV positive CNE1 cells) was 1 nM and the “PML NB immunofluorescence intensity, dose response” value ([5]; EBV positive CNE1 cells) was “diminished by exposure to ATO in a dose dependent manner”.
